#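 Following 48 hours of exposure in 96-well plates, responses at five concentrations were used to interpolate endpoints linearly. GI50 marks 50% less growth. TGI is the concentration that stops growth completely.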
# Tested on: MOLT-4 leukemia
# Assay: NCI anticancer screen, dose series, 48 h
row,Structure (SMILES),TGI
1,CN1CCCC2C(c3ccccc3)C(C3=NCCCC3)C(c3ccccc3)CC21 (configuration not stated),> 100 µM

# Tested on: M14 melanoma
# Assay: NCI anticancer screen, dose series, 48 h
row,Structure (SMILES),TGI
1,C[C@]12CC[C@H]3[C@@H](CCC4=CC(=O)CC[C@@H]43)[C@@H]1CC[C@]2(O)C(N)=O,> 100 µM
2,COC(=O)C1C2OC(C)(C)OC2CN1S(=O)(=O)c1ccc(C)cc1 (configuration not stated),> 100 µM
3,[O-][n+]1nc(N2CCOCC2)nc2ccccc21,> 100 µM
4,O=C1CSC(c2ccccc2)N1c1nc2cc3sc(N4C(=O)CSC4c4ccccc4)nc3cc2s1 (configuration not stated),> 100 µM
5,Cc1sc2nc(N(C)C)oc(=O)c2c1C,> 100 µM
6,Cc1nc(N)c(N2CCN(S(N)(=O)=O)CC2)c(=O)[nH]1,> 100 µM
7,CC(C)OC(=O)c1ccc(NCC2=CC(=O)C=CC2=O)cc1,28.3 µM
8,CC(C)C[C@H]1[C@@H](OCc2ccccc2)COS(=O)(=O)N1[C@H](C)c1ccccc1,> 100 µM
9,CN1CCC23c4c5ccc(Oc6nnnn6-c6ccccc6)c4OC2c2[nH]c4ccccc4c2CC3(O)C1C5 (configuration not stated),3.38 µM
10,COC(=O)c1ccccc1/C=C1\Cc2c(C)c3c(c(C)c2C1=O)CCC3,> 100 µM
11,O=C1c2ccccc2-c2nnc(-c3ccc([N+](=O)[O-])cc3)cc21,> 10 µM
12,Cn1c(-c2cccs2)cc(-c2cccs2)c1-c1cccs1,> 100 µM
13,COc1cc2c(/C=C3/C(=O)Nc4ccc(O)cc43)c(Cl)n(Cc3ccccc3)c2cc1C,11.8 µM
14,CCSc1nnc(Sc2c3ccccc3nc3ccccc23)s1,32.1 µM
15,O=C(CC(O)(C(F)(F)F)C(F)(F)F)C(c1ccccc1)C(O)(C(F)(F)F)C(F)(F)F (configuration not stated),> 100 µM
16,CCOC(=O)CC[C@H](N)C(=O)N[C@@H](Cc1ccc(N(CCCl)CCCl)cc1)C(=O)OCC,1.59 µM
17,CC(C)CCCC(C)[C@H]1CC[C@H]2n3c(nnc3-c3ccccc3)CCC[C@]12C (some centres not stated),30.1 µM
18,O=C(CSc1ncccn1)N/N=C/c1ccccc1OCc1ccccc1,> 100 µM
19,CN1CCCC2C(c3ccccc3)C(C3=NCCCC3)C(c3ccccc3)CC21 (configuration not stated),40.4 µM

# Tested on: A498 renal
# Assay: NCI anticancer screen, dose series, 48 h
Structure (SMILES),TGI,GI50
C[C@]12CC[C@H]3[C@@H](CCC4=CC(=O)CC[C@@H]43)[C@@H]1CC[C@]2(O)C(N)=O,> 100 µM,–
COC(=O)C1C2OC(C)(C)OC2CN1S(=O)(=O)c1ccc(C)cc1 (configuration not stated),> 100 µM,–
[O-][n+]1nc(N2CCOCC2)nc2ccccc21,> 100 µM,–
O=C1CSC(c2ccccc2)N1c1nc2cc3sc(N4C(=O)CSC4c4ccccc4)nc3cc2s1 (configuration not stated),> 100 µM,–
Cc1sc2nc(N(C)C)oc(=O)c2c1C,> 100 µM,–
Cc1nc(N)c(N2CCN(S(N)(=O)=O)CC2)c(=O)[nH]1,> 100 µM,–
CC(C)OC(=O)c1ccc(NCC2=CC(=O)C=CC2=O)cc1,90.3 µM,–
CC(C)C[C@H]1[C@@H](OCc2ccccc2)COS(=O)(=O)N1[C@H](C)c1ccccc1,> 100 µM,–
CN1CCC23c4c5ccc(Oc6nnnn6-c6ccccc6)c4OC2c2[nH]c4ccccc4c2CC3(O)C1C5 (configuration not stated),6.3 µM,–
COC(=O)c1ccccc1/C=C1\Cc2c(C)c3c(c(C)c2C1=O)CCC3,> 100 µM,–
O=C1c2ccccc2-c2nnc(-c3ccc([N+](=O)[O-])cc3)cc21,> 10 µM,–
Cn1c(-c2cccs2)cc(-c2cccs2)c1-c1cccs1,> 100 µM,–
COc1cc2c(/C=C3/C(=O)Nc4ccc(O)cc43)c(Cl)n(Cc3ccccc3)c2cc1C,> 100 µM,6.26 µM
CCSc1nnc(Sc2c3ccccc3nc3ccccc23)s1,> 62.4 µM,–
O=C(CC(O)(C(F)(F)F)C(F)(F)F)C(c1ccccc1)C(O)(C(F)(F)F)C(F)(F)F (configuration not stated),> 100 µM,–
CCOC(=O)CC[C@H](N)C(=O)N[C@@H](Cc1ccc(N(CCCl)CCCl)cc1)C(=O)OCC,42 µM,–
CC(C)CCCC(C)[C@H]1CC[C@H]2n3c(nnc3-c3ccccc3)CCC[C@]12C (some centres not stated),31.8 µM,–
O=C(CSc1ncccn1)N/N=C/c1ccccc1OCc1ccccc1,71.8 µM,–
CN1CCCC2C(c3ccccc3)C(C3=NCCCC3)C(c3ccccc3)CC21 (configuration not stated),> 100 µM,–

# Tested on: PC-3 prostate
# Assay: NCI anticancer screen, dose series, 48 h
row,Structure (SMILES),TGI
1,C[C@]12CC[C@H]3[C@@H](CCC4=CC(=O)CC[C@@H]43)[C@@H]1CC[C@]2(O)C(N)=O,> 100 µM
2,COC(=O)C1C2OC(C)(C)OC2CN1S(=O)(=O)c1ccc(C)cc1 (configuration not stated),> 100 µM
3,[O-][n+]1nc(N2CCOCC2)nc2ccccc21,> 100 µM
4,O=C1CSC(c2ccccc2)N1c1nc2cc3sc(N4C(=O)CSC4c4ccccc4)nc3cc2s1 (configuration not stated),> 100 µM
5,Cc1sc2nc(N(C)C)oc(=O)c2c1C,> 100 µM
6,Cc1nc(N)c(N2CCN(S(N)(=O)=O)CC2)c(=O)[nH]1,> 100 µM
7,CC(C)OC(=O)c1ccc(NCC2=CC(=O)C=CC2=O)cc1,25.7 µM
8,CC(C)C[C@H]1[C@@H](OCc2ccccc2)COS(=O)(=O)N1[C@H](C)c1ccccc1,> 100 µM
9,CN1CCC23c4c5ccc(Oc6nnnn6-c6ccccc6)c4OC2c2[nH]c4ccccc4c2CC3(O)C1C5 (configuration not stated),15 µM
10,COC(=O)c1ccccc1/C=C1\Cc2c(C)c3c(c(C)c2C1=O)CCC3,> 100 µM
11,O=C1c2ccccc2-c2nnc(-c3ccc([N+](=O)[O-])cc3)cc21,> 10 µM
12,Cn1c(-c2cccs2)cc(-c2cccs2)c1-c1cccs1,> 100 µM
13,COc1cc2c(/C=C3/C(=O)Nc4ccc(O)cc43)c(Cl)n(Cc3ccccc3)c2cc1C,> 87.1 µM
14,CCSc1nnc(Sc2c3ccccc3nc3ccccc23)s1,46.7 µM
15,O=C(CC(O)(C(F)(F)F)C(F)(F)F)C(c1ccccc1)C(O)(C(F)(F)F)C(F)(F)F (configuration not stated),> 100 µM
16,CCOC(=O)CC[C@H](N)C(=O)N[C@@H](Cc1ccc(N(CCCl)CCCl)cc1)C(=O)OCC,7.46 µM
17,CC(C)CCCC(C)[C@H]1CC[C@H]2n3c(nnc3-c3ccccc3)CCC[C@]12C (some centres not stated),44.9 µM
18,O=C(CSc1ncccn1)N/N=C/c1ccccc1OCc1ccccc1,> 100 µM
19,CN1CCCC2C(c3ccccc3)C(C3=NCCCC3)C(c3ccccc3)CC21 (configuration not stated),> 100 µM

# Tested on: NCI-H226 lung
# Assay: NCI anticancer screen, dose series, 48 h
row,Structure (SMILES),TGI
1,C[C@]12CC[C@H]3[C@@H](CCC4=CC(=O)CC[C@@H]43)[C@@H]1CC[C@]2(O)C(N)=O,> 100 µM
2,COC(=O)C1C2OC(C)(C)OC2CN1S(=O)(=O)c1ccc(C)cc1 (configuration not stated),41.1 µM
3,[O-][n+]1nc(N2CCOCC2)nc2ccccc21,> 100 µM
4,O=C1CSC(c2ccccc2)N1c1nc2cc3sc(N4C(=O)CSC4c4ccccc4)nc3cc2s1 (configuration not stated),> 96.6 µM
5,Cc1sc2nc(N(C)C)oc(=O)c2c1C,> 100 µM
6,Cc1nc(N)c(N2CCN(S(N)(=O)=O)CC2)c(=O)[nH]1,> 100 µM
7,CC(C)OC(=O)c1ccc(NCC2=CC(=O)C=CC2=O)cc1,> 100 µM
8,CC(C)C[C@H]1[C@@H](OCc2ccccc2)COS(=O)(=O)N1[C@H](C)c1ccccc1,> 100 µM
9,CN1CCC23c4c5ccc(Oc6nnnn6-c6ccccc6)c4OC2c2[nH]c4ccccc4c2CC3(O)C1C5 (configuration not stated),27.6 µM
10,COC(=O)c1ccccc1/C=C1\Cc2c(C)c3c(c(C)c2C1=O)CCC3,> 100 µM
11,O=C1c2ccccc2-c2nnc(-c3ccc([N+](=O)[O-])cc3)cc21,> 10 µM
12,Cn1c(-c2cccs2)cc(-c2cccs2)c1-c1cccs1,> 100 µM
13,COc1cc2c(/C=C3/C(=O)Nc4ccc(O)cc43)c(Cl)n(Cc3ccccc3)c2cc1C,15.5 µM
14,CCSc1nnc(Sc2c3ccccc3nc3ccccc23)s1,> 78.9 µM
15,O=C(CC(O)(C(F)(F)F)C(F)(F)F)C(c1ccccc1)C(O)(C(F)(F)F)C(F)(F)F (configuration not stated),> 100 µM
16,CCOC(=O)CC[C@H](N)C(=O)N[C@@H](Cc1ccc(N(CCCl)CCCl)cc1)C(=O)OCC,28.8 µM
17,CC(C)CCCC(C)[C@H]1CC[C@H]2n3c(nnc3-c3ccccc3)CCC[C@]12C (some centres not stated),37.5 µM
18,O=C(CSc1ncccn1)N/N=C/c1ccccc1OCc1ccccc1,55.1 µM
